The values below come from patent US11230526B1, “Cylcoalkenyl derivatives useful as agonists of the GPR120 and/or GPR40 receptors” (Janssen Pharmaceutica NV, priority 2018, dated 2022).

In general, pEC50 refers to the negative decadic logarithm of the EC50, by convention in mol/L.

In assay [1] the target is T1, Human GPR120 short form (Homo sapiens, UniProt Q5NUL3).
T1 construct: expressed in transfected cells
T1 sequence (Q5NUL3 1-361): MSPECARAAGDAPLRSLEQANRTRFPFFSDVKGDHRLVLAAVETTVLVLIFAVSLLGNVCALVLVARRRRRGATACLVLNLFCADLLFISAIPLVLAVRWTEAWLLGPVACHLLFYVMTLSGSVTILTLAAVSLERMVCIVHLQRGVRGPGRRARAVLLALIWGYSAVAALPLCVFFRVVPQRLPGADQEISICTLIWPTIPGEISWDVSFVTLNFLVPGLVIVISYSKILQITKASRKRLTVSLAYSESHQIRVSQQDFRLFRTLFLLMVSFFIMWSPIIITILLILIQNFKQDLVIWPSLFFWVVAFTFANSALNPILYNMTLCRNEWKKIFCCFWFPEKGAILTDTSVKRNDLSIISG
Briefly: Human GPR120 calcium flux assay, Procedure Calcium B (4200 cells/well). In kind it is cell-based. In short, it runs like this: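 HEK293 cells stably expressing human GPR120 (NM_001195755.1), 4200 cells/well, starved 1 h and loaded with Fluo-4 NW plus probenecid. Ligand-evoked calcium flux read on FLIPR for 300 s after a 10 s baseline. RFU = Fmax−Fmin; EC50 from four-parameter concentration-response fit.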
On the technique in general: A change in cytosolic calcium serves as a functional read-out for many receptors and channels.

The target of assay [2] is T2, long form of human GPR120 (Homo sapiens, UniProt Q5NUL3).
T2 construct: host or cells: PathHunter CHO-K1 GPR120 β-Arrestin Cell Line
T2 sequence (Q5NUL3 1-377 isoform Q5NUL3-1): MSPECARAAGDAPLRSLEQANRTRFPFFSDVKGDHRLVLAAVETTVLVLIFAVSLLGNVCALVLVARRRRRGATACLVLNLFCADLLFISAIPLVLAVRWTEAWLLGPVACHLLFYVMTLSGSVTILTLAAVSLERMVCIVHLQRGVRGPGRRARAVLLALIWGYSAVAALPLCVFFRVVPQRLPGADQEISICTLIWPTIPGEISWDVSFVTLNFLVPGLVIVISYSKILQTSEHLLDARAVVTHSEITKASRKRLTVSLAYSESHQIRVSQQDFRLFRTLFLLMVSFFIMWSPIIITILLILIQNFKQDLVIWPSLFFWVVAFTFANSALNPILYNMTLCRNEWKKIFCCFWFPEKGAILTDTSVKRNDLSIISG
T2 sequence (P32121 whole entry partner): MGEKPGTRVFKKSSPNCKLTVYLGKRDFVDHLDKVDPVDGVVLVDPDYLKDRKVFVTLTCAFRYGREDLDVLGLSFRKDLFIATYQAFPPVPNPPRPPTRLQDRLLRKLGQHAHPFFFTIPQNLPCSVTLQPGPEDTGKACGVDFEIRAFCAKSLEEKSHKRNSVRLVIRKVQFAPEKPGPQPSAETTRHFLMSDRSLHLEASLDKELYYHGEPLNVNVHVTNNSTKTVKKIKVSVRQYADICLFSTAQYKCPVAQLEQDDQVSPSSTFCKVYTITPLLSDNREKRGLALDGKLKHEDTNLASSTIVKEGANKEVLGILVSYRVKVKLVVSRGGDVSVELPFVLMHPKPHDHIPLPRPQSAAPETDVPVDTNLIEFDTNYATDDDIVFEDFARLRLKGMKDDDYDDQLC
Briefly: Human GPR120 DiscoveRx PathHunter Beta-Arrestin assay, Procedure β-arrestin A. Type of assay: cell-based. From the text: Human GPR120 DiscoveRx PathHunter® Beta-Arrestin Assay Assay Principle:
The binding of an agonist (medium/long chain fatty acids or small molecule agonists) to the G-protein-coupled receptor GPR120 activates phospholipase C, leading to release of intracellular Ca^+2 through the generation of inositol 1,4,5-trisphosphate (InsP3 or IP3). GPR120 activation can also trigger intracellular signaling via recruitment of Beta-Arrestin. In the present method, agonist-induced activation of the human GPR120 receptor is monitored through the use of PathHunter® CHO-K1 GPR120 Beta-Arrestin Cell Line engineered by DiscoveRx, as detailed below. The cell lines are designed to co-express both the ProLink/Enzyme Donor (PK)-tagged GPCR and the Enzyme […] (EA)-tagged Beta-Arrestin fusion proteins. Upon GPR120 receptor stimulation/activation, the EA-tagged Beta-Arrestin portion is translocated to the tagged receptor, where the two enzyme fragments are brought within close proximity. Under these conditions, these fragments can interact and form an active Beta-gal enzyme complex through Enzyme Fragment Complementation (EFC). This active Beta-gal complex can enzymatically hydrolyse the substrate to produce a detectable light signal; therefore, activation as a function of agonist concentration can be expressed as an EC50 value to determine relative compound activities. This in vitro assay therefore serves to assess compound agonist activity of the GPR120.
In Procedure β-arrestin A, the cell used were PathHunter® CHO-K1 GPR120 β-Arrestin Cell Line, expressing the long form of human GPR120 (Genbank accession number NM_181745), with 3000 cells per well.
The selected CHO-K1 GPR120 β-Arrestin cells were cultured in Ham's F12 media supplemented with 10% fetal bovine serum (FBS), 1% Glutamine, 1×p/s, 800 μg/mL G418 and 300 μg/mL Hygromycin B (for selection). Cell stocks were maintained and grown in a sub-confluent state using standard cell culture procedures. The day before the experiment, the cells were harvested with non-enzymatic cell dissociation buffer and re-suspended in complete growth media at the desired concentration. A Corning 384-plate was then seeded with the proper number of cells in a volume of 25 μL, per well. The seeded plates were incubated overnight at 37° C.
On the day of the experiment, the Assay Buffer containing (a) HBSS with Ca^++ and Mg^++, (b) 20 mM HEPES, and (c) 0.1% BSA stabilizer (pH 7.4) was prepared. The growth medium was gently removed from the cell plates and 20 μL of Assay Buffer added to each well. The plate was then incubated at 37° C. for 60 min. Test compounds were serially diluted in Assay Buffer to desired concentrations (more particularly to one or more of the following μM concentrations: 25, 12.5, 6.25, 3.12, 1.56, 0.78, 0.39, 0.19, 0.10, 0.05, 0.02, 0.01). Five μL of compound dilution was then added to each well and the plate incubated at 37° C. for 90 min. The detection reagents were prepared according to the manufacture's instruction. Twelve μL of the detection reagents were added to each well and the plate incubated at room temperature for 60 min.
The plates were read on an EnVision instrument, using Protocol name: Luminescence, Plate type: 384 Costar, Measurement height: 3 mm, Measurement time: 1 s, Aperture: 384 Plate aperture. The % Activity relative to the positive control was calculated using the following equation:
The % Activity values were plotted versus the concentration of test compound and fitted to a sigmoidal dose-response curve with a Hill slope=1 (fixed value) using nonlinear regression with GraphPad Prism 5.0 to calculate the EC50 values. The Fitting Equation was: Y=Bottom+(Top-Bottom)/(1+10^((Log EC50−X)*HillSlope)), where X is the log of the concentration and Y is the response.

pEC50: −log10 of the molar value.

For the compound `Cc1ccc(C2=C(COc3ccc(CCC(=O)O)cc3Br)CCC2)cc1` [Compound 169, 3-[3-bromo-4-[[2-(p-tolyl)cyclopenten-1-yl]methoxy]phenyl]Propanoic Acid], the pEC50 in assay [1] was 7.31; in assay [2], 7.46.

Consider `Cc1c(CCC(=O)O)ccc(OCC2=C(c3ccc(Cl)c(F)c3)CC(F)(F)C2)c1C` [Compound 171, 3-[4-[[2-(4-chloro-3-fluoro-phenyl)-4,4-difluoro-cyclopenten-1-yl]methoxy]-2,3-dimethyl-phenyl]Propanoic Acid], for which the pEC50 was 6.97 in assay [1] and 6.68 in assay [2].

On to `Cc1c(CCC(=O)O)ccc(OCC2=C(c3ccc(F)c(F)c3)CC(F)(F)C2)c1C` [Compound 177, 3-[4-[[2-(3,4-difluorophenyl)-4,4-difluoro-cyclopenten-1-yl]methoxy]-2,3-dimethyl-phenyl]Propanoic Acid], for which the negative logarithm of the EC50 (pEC50) in assay [1] was 7.28; in assay [2], 7.14.

Consider `COC1CC(COc2ccc(CCC(=O)O)c(C)c2C)=C(c2ccc(Cl)cc2)C1` (stereo not drawn) [Compound 189, 3-[4-[[2-(4-chlorophenyl)-4-methoxy-cyclopenten-1-yl]methoxy]-2,3-dimethyl-phenyl]Propanoic Acid], for which the pEC50 in assay [1] was 7.20; in assay [2] it was 6.61.

On to `Cc1cc(CCC(=O)O)ccc1OCC1=C(c2cncs2)CC(F)(F)C1` [Compound 190, 3-[4-[(4,4-difluoro-2-thiazol-5-yl-cyclopenten-1-yl)methoxy]-3-methyl-phenyl]Propanoic Acid], for which the pEC50 was 6.35 in assay [1] and 5.98 in assay [2].

With `Cc1c(CCC(=O)O)ccc(OCC2=C(c3cccc(F)c3)CC(F)(F)C2)c1C` [Compound 192, 3-[4-[[4,4-difluoro-2-(3-fluorophenyl)cyclopenten-1-yl]methoxy]-2,3-dimethyl-phenyl]Propanoic Acid], the pEC50 was 7.21 in assay [1] and 6.49 in assay [2].

As for `Cc1c(CCC(=O)O)ccc(OCC2=C(c3ccccc3)CC(F)(F)C2)c1C` [Compound 194, 3-[4-[(4,4-difluoro-2-phenyl-cyclopenten-1-yl)methoxy]-2,3-dimethyl-phenyl]Propanoic Acid], the values for the pEC50 in assay [1] and in assay [2] were 7.44 and 6.79, respectively.

Consider `Cc1c(CCC(=O)O)ccc(OCC2=C(c3ccc(Cl)cc3)CC(Cl)C2)c1C` (stereo not drawn) [Compound 195, 3-[4-[[4-chloro-2-(4-chlorophenyl)cyclopenten-1-yl]methoxy]-2,3-dimethyl-phenyl]Propanoic Acid], for which the pEC50 in assay [1] was 6.64; in assay [2], 6.33.

For `Cc1c(CCC(=O)O)ccc(OCC2=C(c3ccc(Cl)cc3)CC(C#N)C2)c1C` (stereo not drawn) [Compound 196, 3-[4-[[2-(4-chlorophenyl)-4-cyano-cyclopenten-1-yl]methoxy]-2,3-dimethyl-phenyl]Propanoic Acid], the pEC50 was 6.13 in assay [1] and 6.00 in assay [2].

For the compound `Cc1c(CCC(=O)O)ccc(OCC2=C(c3cccs3)CC(F)(F)C2)c1C` [Compound 200, 3-[4-[[4,4-difluoro-2-(2-thienyl)cyclopenten-1-yl]methoxy]-2,3-dimethyl-phenyl]Propanoic Acid], the negative-log EC50 (pEC50) in assay [1] was 6.74; in assay [2], 6.36.

As to `O=C(O)CCc1cc(F)c(OCC2=C(c3cccs3)CC(F)(F)C2)c(F)c1` [Compound 201, 3-[4-[[4,4-difluoro-2-(2-thienyl)cyclopenten-1-yl]methoxy]-3,5-difluoro-phenyl]Propanoic Acid], the pEC50 in assay [1] was 6.10; in assay [2], 6.39.

In the case of `Cc1cc(CCC(=O)O)ccc1OCC1=C(c2cccs2)CC(F)(F)C1` [Compound 202, 3-[4-[[4,4-difluoro-2-(2-thienyl)cyclopenten-1-yl]methoxy]-3-methyl-phenyl]Propanoic Acid], the pEC50 in assay [1] is 6.94; in assay [2], 6.52.

For the compound `Cc1c(CCC(=O)O)ccc(OCC2=C(c3ccc(Cl)c(F)c3)CCC(F)(F)C2)c1C` [Compound 526, 3-[4-[[2-(4-chloro-3-fluoro-phenyl)-5,5-difluoro-cyclohexen-1-yl]methoxy]-2,3-dimethyl-phenyl]Propanoic Acid], the pEC50 in assay [1] was 6.06; in assay [2] it was 5.42.

As for `Cc1cc(CCC(=O)O)ccc1OCC1=C(c2ccc(Cl)c(F)c2)CCC(F)(F)C1` [Compound 527, 3-[4-[[2-(4-chloro-3-fluoro-phenyl)-5,5-difluoro-cyclohexen-1-yl]methoxy]-3-methyl-phenyl]Propanoic Acid], the values for the pEC50 in assay [1] and in assay [2] were 6.05 and 6.30, respectively.

On to `Cc1c(CCC(=O)O)ccc(OCC2=C(c3ccc(F)c(F)c3)CCC(F)(F)C2)c1C` [Compound 531, 3-[4-[[2-(3,4-difluorophenyl)-5,5-difluoro-cyclohexen-1-yl]methoxy]-2,3-dimethyl-phenyl]Propanoic Acid], for which the pEC50 is 6.93 in assay [1] and 6.54 in assay [2].

Turning to `Cc1cc(CCC(=O)O)ccc1OCC1=C(c2ccccc2)CCC(F)(F)C1` [Compound 538, 3-[4-[(5,5-difluoro-2-phenyl-cyclohexen-1-yl)methoxy]-3-methyl-phenyl]Propanoic Acid], the pEC50 was 7.05 in assay [1] and 6.80 in assay [2].

In the case of `COC1CCC(c2ccc(Cl)cc2)=C(COc2ccc(CCC(=O)O)c(C)c2C)C1` (stereo not drawn) [Compound 540, 3-[4-[[2-(4-chlorophenyl)-5-methoxy-cyclohexen-1-yl]methoxy]-2,3-dimethyl-phenyl]Propanoic Acid], the pEC50 was 6.82 in assay [1] and 6.65 in assay [2].

On to `Cc1c(CCC(=O)O)ccc(OCC2=C(c3cnn(C)c3)CCC(F)(F)C2)c1C` [Compound 545, 3-[4-[[5,5-difluoro-2-(1-methylpyrazol-4-yl)cyclohexen-1-yl]methoxy]-2,3-dimethyl-phenyl]Propanoic Acid], for which the pEC50 is 6.01 in assay [1] and 5.78 in assay [2].

With `Cc1c(CCC(=O)O)ccc(OCC2=C(c3cncs3)CCC(F)(F)C2)c1C` [Compound 547, 3-[4-[(5,5-difluoro-2-thiazol-5-yl-cyclohexen-1-yl)methoxy]-2,3-dimethyl-phenyl]Propanoic Acid], the figures for the pEC50 in assay [1] and in assay [2] were 6.41 and 5.74, respectively.

`Cc1c(CCC(=O)O)ccc(OCC2=C(c3ccco3)CCC(F)(F)C2)c1C` [Compound 552, 3-[4-[[5,5-difluoro-2-(2-furyl)cyclohexen-1-yl]methoxy]-2,3-dimethyl-phenyl]Propanoic Acid]: the pEC50 was 6.81 in assay [1] and 6.32 in assay [2].

`Cc1ncc(C2=C(COc3c(F)cc(CCC(=O)O)cc3F)CC(F)(F)CC2)s1` [Compound 554, 3-[4-[[5,5-difluoro-2-(2-methylthiazol-5-yl)cyclohexen-1-yl]methoxy]-3,5-difluoro-phenyl]Propanoic Acid]: the pEC50 was 6.14 in assay [1] and 5.99 in assay [2].
